Target: FGFR3 enzyme (Homo sapiens (Human), UniProt P22607)
Test: FGFR Enzymatic Assay (peptide phosphorylation, FRET), FGFR3
Format: biochemical
Conditions: IC50 ratio showing FGFR3 selectivity; pre-incubated for 4 hours
Protocol: The inhibitor potency of the exemplified compounds was measured in an enzyme assay that measures peptide phosphorylation using FRET measurements to detect product formation. Inhibitors were serially diluted in DMSO and a volume of 0.5 μL was transferred to the wells of a 384-well plate.
GraphPad prism3 was used to analyze the data.

Sequence of FGFR3 enzyme (P22607 23-806): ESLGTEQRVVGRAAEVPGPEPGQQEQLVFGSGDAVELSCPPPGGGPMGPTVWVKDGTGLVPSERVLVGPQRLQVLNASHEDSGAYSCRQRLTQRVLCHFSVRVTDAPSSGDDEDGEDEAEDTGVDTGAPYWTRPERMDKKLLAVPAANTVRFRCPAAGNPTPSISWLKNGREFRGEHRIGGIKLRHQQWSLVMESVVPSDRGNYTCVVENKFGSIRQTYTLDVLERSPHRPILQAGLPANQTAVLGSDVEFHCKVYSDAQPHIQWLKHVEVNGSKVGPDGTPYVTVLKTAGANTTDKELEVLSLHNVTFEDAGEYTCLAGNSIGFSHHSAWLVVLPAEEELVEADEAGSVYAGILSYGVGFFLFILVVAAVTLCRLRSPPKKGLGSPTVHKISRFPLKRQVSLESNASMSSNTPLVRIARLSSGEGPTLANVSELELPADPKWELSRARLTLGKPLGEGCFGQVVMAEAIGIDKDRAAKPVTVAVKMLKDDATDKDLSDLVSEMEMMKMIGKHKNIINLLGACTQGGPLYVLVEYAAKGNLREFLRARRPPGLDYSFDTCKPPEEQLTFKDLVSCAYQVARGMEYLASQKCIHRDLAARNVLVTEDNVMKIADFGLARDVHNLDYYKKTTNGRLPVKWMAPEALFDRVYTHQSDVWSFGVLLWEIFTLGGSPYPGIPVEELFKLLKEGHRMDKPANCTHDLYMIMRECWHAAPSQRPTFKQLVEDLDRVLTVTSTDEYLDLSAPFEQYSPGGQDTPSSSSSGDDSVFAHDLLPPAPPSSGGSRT

| FGFR1/FGFR3 | FGFR4/FGFR3 | SMILES |
| --- | --- | --- |
| >5 | >5 | COc1cc(OC)c(F)c(N2Cc3cnc(-c4cn(C)nc4C)cc3N(C3(C#N)CC3)C2=O)c1F [Example 91, 1-(3-(2,6-difluoro-3,5-dimethoxyphenyl)-7-(1,3-dimethyl-1H-pyrazol-4-yl)-2-oxo-3,4-dihydropyrido[4,3-d]pyrimidin-1(2H)-yl)cyclopropanecarbonitrile] |
| >5 | >10 | COc1cc(OC)c(F)c(N2Cc3cnc(-c4cn(C)nc4C)cc3N(c3ccc(CC#N)cc3)C2=O)c1F [Example 97, 2-(4-(3-(2,6-difluoro-3,5-dimethoxyphenyl)-7-(1,3-dimethyl-1H-pyrazol-4-yl)-2-oxo-3,4-dihydropyrido[4,3-d]pyrimidin-1(2H)-yl)phenyl)acetonitrile] |
| >10 | >5 | CNC(=O)c1ccc(CN2C(=O)N(c3c(F)c(OC)cc(OC)c3F)Cc3cnc(-c4cn(C)nc4C)cc32)cc1 [Example 62, 4-((3-(2,6-difluoro-3,5-dimethoxyphenyl)-7-(1,3-dimethyl-1H-pyrazol-4-yl)-2-oxo-3,4-dihydropyrido[4,3-d]pyrimidin-1(2H)-yl)methyl)-N-methylbenzamide] |
| >5 | >3 | COc1cc(OC)c(F)c(N2Cc3cnc(-c4cnn(CCN5CCC(OC)C5)c4)cc3C3(CC3)C2=O)c1F (stereo not shown) [Example 161, 2′-(2,6-difluoro-3,5-dimethoxyphenyl)-6′-(1-(2-(3-methoxypyrrolidin-1-yl)ethyl)-1H-pyrazol-4-yl)-1′H-spiro[cyclopropane-1,4′-[2,7]naphthyridin]-3′(2′H)-one] |
| >5 | >5 | COc1cc(OC)c(F)c(N2Cc3cnc(-c4csc(N(C)C)n4)cc3C3(CC3)C2=O)c1F [Example 160, 2′-(2,6-difluoro-3,5-dimethoxyphenyl)-6′-(2-(dimethylamino)thiazol-4-yl)-1′H-spiro[cyclopropane-1,4′-[2,7]naphthyridin]-3′(2′H)-one] |
| >5 | >5 | COc1cc(OC)c(F)c(N2Cc3cnc(-c4cn(C)nc4C)cc3N(C(C)C)C2=O)c1F [Example 90, 3-(2,6-difluoro-3,5-dimethoxyphenyl)-7-(1,3-dimethyl-1H-pyrazol-4-yl)-1-isopropyl-3,4-dihydropyrido[4,3-d]pyrimidin-2(1H)-one] |
| >10 | >10 | CCn1cc(CN2C(=O)N(c3c(F)c(OC)cc(OC)c3F)Cc3cnc(-c4cn(C)nc4C)cc32)cn1 [Example 39, 3-(2,6-difluoro-3,5-dimethoxyphenyl)-7-(1,3-dimethyl-1H-pyrazol-4-yl)-1-((1-ethyl-1H-pyrazol-4-yl)methyl)-3,4-dihydropyrido[4,3-d]pyrimidin-2(1H)-one] |
| >5 | >5 | CCN1C(=O)N(c2c(F)c(OC)cc(OC)c2F)Cc2cnc(-c3ccc(CN4CC[C@H](C#N)C4)cc3)cc21 [Example 25, (S)-1-(4-(3-(2,6-difluoro-3,5-dimethoxyphenyl)-1-ethyl-2-oxo-1,2,3,4-tetrahydropyrido[4,3-d]pyrimidin-7-yl)benzyl)pyrrolidine-3-carbonitrile] |
| >1 | >1 | CCN1C(=O)N(c2c(F)c(OC)cc(OC)c2F)Cc2cnc(-c3cn(CC(=O)N4CCOCC4)nc3C)cc21 [Example 51, 3-(2,6-difluoro-3,5-dimethoxyphenyl)-1-ethyl-7-(3-methyl-1-(2-morpholino-2-oxoethyl)-1H-pyrazol-4-yl)-3,4-dihydropyrido[4,3-d]pyrimidin-2(1H)-one] |
| >5 | >5 | CCN1C(=O)N(c2c(F)c(OC)cc(OC)c2F)Cc2cnc(-c3ccc(C(=O)NC(C)C)nc3)cc21 [Example 178, 5-(3-(2,6-difluoro-3,5-dimethoxyphenyl)-1-ethyl-2-oxo-1,2,3,4-tetrahydropyrido[4,3-d]pyrimidin-7-yl)-N-isopropylpicolinamide] |
| >5 | >10 | COc1cc(OC)c(F)c(N2Cc3cnc(-c4cn(C)nc4C)cc3N(c3cn[nH]c3)C2=O)c1F [Example 129, 3-(2,6-difluoro-3,5-dimethoxyphenyl)-7-(1,3-dimethyl-1H-pyrazol-4-yl)-1-(1H-pyrazol-4-yl)-3,4-dihydropyrido[4,3-d]pyrimidin-2(1H)-one] |
| >5 | >5 | COc1cc(OC)c(F)c(N2Cc3cnc(-c4cn(C)nc4C)cc3N(C3CCOC3)C2=O)c1F (stereo not shown) [Example 33, 3-(2,6-difluoro-3,5-dimethoxyphenyl)-7-(1,3-dimethyl-1H-pyrazol-4-yl)-1-(tetrahydrofuran-3-yl)-3,4-dihydropyrido[4,3-d]pyrimidin-2(1H)-one] |
| >3 | >5 | COc1cc(OC)c(F)c(N2Cc3cnc(-c4cn(C)nc4C)cc3N(c3ncccn3)C2=O)c1F [Example 105, 3-(2,6-difluoro-3,5-dimethoxyphenyl)-7-(1,3-dimethyl-1H-pyrazol-4-yl)-1-(pyrimidin-2-yl)-3,4-dihydropyrido[4,3-d]pyrimidin-2(1H)-one] |
| >5 | >10 | COc1cc(OC)c(F)c(N2Cc3cnc(-c4cn(C)nc4C)cc3N(Cc3ccncn3)C2=O)c1F [Example 65, 3-(2,6-difluoro-3,5-dimethoxyphenyl)-7-(1,3-dimethyl-1H-pyrazol-4-yl)-1-(pyrimidin-4-ylmethyl)-3,4-dihydropyrido[4,3-d]pyrimidin-2(1H)-one] |
| >10 | >5 | COc1cc(OC)c(F)c(N2Cc3cnc(-c4cn(C)nc4C)cc3N(c3ccc4ccncc4c3)C2=O)c1F [Example 63, 3-(2,6-difluoro-3,5-dimethoxyphenyl)-7-(1,3-dimethyl-1H-pyrazol-4-yl)-1-(isoquinolin-7-yl)-3,4-dihydropyrido[4,3-d]pyrimidin-2(1H)-one] |
| >10 | >3 | COc1cc(OC)c(F)c(N2Cc3cnc(-c4cnn(CCC5CCN(S(C)(=O)=O)CC5)c4)cc3C3(CC3)C2=O)c1F [Example 148, 2′-(2,6-difluoro-3,5-dimethoxyphenyl)-6′-(1-(2-(1-(methylsulfonyl)piperidin-4-yl)ethyl)-1H-pyrazol-4-yl)-1′H-spiro[cyclopropane-l,4′-[2,7]naphthyridin]-3′(2′H)-one] |
| >3 | >5 | CCCn1cc(N2C(=O)N(c3c(F)c(OC)cc(OC)c3F)Cc3cnc(-c4cn(C)nc4C)cc32)cn1 [Example 132, 3-(2,6-difluoro-3,5-dimethoxyphenyl)-7-(1,3-dimethyl-1H-pyrazol-4-yl)-1-(1-propyl-1H-pyrazol-4-yl)-3,4-dihydropyrido[4,3-d]pyrimidin-2(1H)-one] |
| >5 | >10 | COc1cc(OC)c(F)c(N2Cc3cnc(-c4cn(C)nc4C)cc3N(Cc3cc(C)no3)C2=O)c1F [Example 35, 3-(2,6-difluoro-3,5-dimethoxyphenyl)-7-(1,3-dimethyl-1H-pyrazol-4-yl)-1-((3-methylisoxazol-5-yl)methyl)-3,4-dihydropyrido[4,3-d]pyrimidin-2(1H)-one] |
| >5 | >5 | COc1cc(OC)c(F)c(N2Cc3cnc(-c4cnn(C5CCN(C(C)=O)C5)c4)cc3C3(CC3)C2=O)c1F (stereo not shown) [Example 150, 6′-(1-(1-acetylpyrrolidin-3-yl)-1H-pyrazol-4-yl)-2′-(2,6-difluoro-3,5-dimethoxyphenyl)-1′H-spiro[cyclopropane-1,4′-[2,7]naphthyridin]-3′(2′H)-one] |
| >10 | >10 | COc1cc(OC)c(F)c(N2Cc3cnc(-c4cn(C)nc4C)cc3N(c3ccc(F)cc3)C2=O)c1F [Example 40, 3-(2,6-difluoro-3,5-dimethoxyphenyl)-7-(1,3-dimethyl-1H-pyrazol-4-yl)-1-(4-fluorophenyl)-3,4-dihydropyrido[4,3-d]pyrimidin-2(1H)-one] |
| >3 | >5 | COc1cc(OC)c(F)c(N2Cc3cnc(-c4cn(C)nc4C)cc3N(CCc3cnn(C)c3)C2=O)c1F [Example 114, 3-(2,6-difluoro-3,5-dimethoxyphenyl)-7-(1,3-dimethyl-1H-pyrazol-4-yl)-1-(2-(1-methyl-1H-pyrazol-4-yl)ethyl)-3,4-dihydropyrido[4,3-d]pyrimidin-2(1H)-one] |
| >5 | >1 | COc1cc(OC)c(F)c(N2Cc3cnc(-c4cn(C5CCS(=O)(=O)C5)nc4C)cc3C3(CC3)C2=O)c1F (stereo not shown) [Example 54, 2′-(2,6-difluoro-3,5-dimethoxyphenyl)-6′-[1-(1,1-dioxidotetrahydro-3-thienyl)-3-methyl-1H-pyrazol-4-yl]-1′,2′-dihydro-3′H-spiro[cyclopropane-1,4′-[2,7]naphthyridin]-3′-one] |
| >3 | >10 | CCN1C(=O)N(c2c(F)c(OC)cc(OC)c2F)Cc2cnc(-c3ccc(C4(C#N)CC4)cc3)cc21 [Example 183, 1-(4-(3-(2,6-difluoro-3,5-dimethoxyphenyl)-1-ethyl-2-oxo-1,2,3,4-tetrahydropyrido[4,3-d]pyrimidin-7-yl)phenyl)cyclopropanecarbonitrile] |

| SMILES | FGFR1/FGFR3 | FGFR4/FGFR3 |
| --- | --- | --- |
| COc1cc(OC)c(F)c(N2Cc3cnc(-c4ccccc4)cc3C3(CC3)C2=O)c1F [Example 17, 2′-(2,6-difluoro-3,5-dimethoxyphenyl)-6′-phenyl-1′H-spiro[cyclopropane-1,4′-[2,7]naphthyridin]-3′(2′H)-one] | >10 |  |
| COc1cc(OC)c(F)c(N2Cc3cnc(-c4cn(C5CCN(CC#N)C5)nc4C)cc3C3(CC3)C2=O)c1F (stereo not shown) [Example 154, 2-(3-(4-(2′-(2,6-difluoro-3,5-dimethoxyphenyl)-3′-oxo-2′,3′-dihydro-1′H-spiro[cyclopropane-1,4′-[2,7]naphthyridine]-6′-yl)-3-methyl-1H-pyrazol-1-yl)pyrrolidin-1-yl)acetonitrile] | >5 | >3 |

Reference: patent US10251892B2, “Bicyclic heterocycles as FGFR4 inhibitors” (Incyte Corporation, priority 2015, dated 2019)
